Values of other authors, collected in paper PMC6270026, “Antibacterial and Herbicidal Activity of Ring-Substituted 2-Hydroxynaphthalene-1-carboxanilides” (Molecules, 2013).
In brackets after ≈: the same amount, converted by molar mass.

What was measured:
[1] = set-up: method as in PMID 23884130; settings: 3-hydroxynaphthalene-2-carboxanilide series; cited from earlier work
[2] = test system: Staphylococcus aureus ATCC 29213; set-up: method as in PMID 23884130; settings: previous study; cited from earlier work
[3] = test system: methicillin-resistant Staphylococcus aureus (MRSA) 63718; set-up: method as in PMID 23884130; settings: previous study, all the MRSA strains; cited from earlier work
[4] = test system: methicillin-resistant Staphylococcus aureus SA 630; set-up: method as in PMID 23884130; settings: previous study, all the MRSA strains; cited from earlier work
[5] = test system: methicillin-resistant Staphylococcus aureus SA 3202; set-up: method as in PMID 23884130; settings: previous study, all the MRSA strains; cited from earlier work
[6] = test system: human monocytic leukemia THP-1 cells; settings: assessed in this line formerly; cited from earlier work

Row | SMILES | log k [1] | MIC against S. aureus [2] [µM] | MIC against MRSA strains (MRSA 63718) [3] [µM] | MIC against MRSA strains (SA 630) [4] [µM] | MIC against MRSA strains (SA 3202) [5] [µM] | LD50 [6] [µmol/L]
1 | COc1ccccc1NC(=O)c1cc2ccccc2cc1O [3-hydroxy-N-(2-methoxyphenyl)naphthalene-2-carboxamide] | 0.69 | 55.0 (≈ 16.1 µg/mL) | 55.0 (≈ 16.1 µg/mL) | 55.0 (≈ 16.1 µg/mL) | 55.0 (≈ 16.1 µg/mL) | 
2 | CC[C@@]1(O)C(=O)OCc2c1cc1n(c2=O)Cc2cc3ccccc3nc2-1 [camptothecin] |  |  |  |  |  | 0.16 ± 0.07
